According to PubChem BioAssay AID248 (DTP/NCI, 2004):
Values joined by “and” are separate entries in the source; they are usually repeats but may differ in a detail not shown here. Equal entries are not always repeated. Inconclusive results and toxic doses are left out. No stated cut-off is given here; in the data, active means T/C of 150% or more; inactive means T/C below 125%.

System: L1210 leukemia ip in BDF1 mice, survival T/C
Assay: NCI In Vivo Anticancer Drug Screen. Data for tumor model L1210 Leukemia (intraperitoneal) in B6D2F1 (BDF1) mice
Conditions: endpoint: mean survival time, higher = longer survival
How it was run: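 Ratio derived from survival: compound-dosed mice over vehicle-dosed mice, all bearing a transplantable tumor.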

[1] = dose: 100.0 mg/kg/injection, schedule: Q01DX005 (ip), vehicle: saline
[2] = dose: 100.0 mg/kg/injection, schedule: Q01DX009 (ip), vehicle: saline
[3] = dose: 200.0 mg/kg/injection, schedule: Q01DX009 (ip), vehicle: saline
[4] = dose: 100.0 mg/kg/injection, schedule: Q04DX003 (ip), vehicle: saline with Tween-80
[5] = dose: 200.0 mg/kg/injection, schedule: Q04DX003 (ip), vehicle: saline with Tween-80
[6] = dose: 400.0 mg/kg/injection, schedule: Q04DX003 (ip), vehicle: saline with Tween-80
[7] = dose: 50.0 mg/kg/injection, schedule: Q04DX002 (ip), vehicle: saline with Tween-80
[8] = dose: 100.0 mg/kg/injection, schedule: Q01DX001 (ip), vehicle: saline with Tween-80
[9] = dose: 100.0 mg/kg/injection, schedule: Q04DX002 (ip), vehicle: saline with Tween-80
[10] = dose: 200.0 mg/kg/injection, schedule: Q01DX001 (ip), vehicle: saline with Tween-80
[11] = dose: 200.0 mg/kg/injection, schedule: Q04DX002 (ip), vehicle: saline with Tween-80
[12] = dose: 400.0 mg/kg/injection, schedule: Q01DX001 (ip), vehicle: saline with Tween-80
[13] = dose: 400.0 mg/kg/injection, schedule: Q04DX002 (ip), vehicle: saline with Tween-80
[14] = dose: 100.0 mg/kg/injection, schedule: Q01DX001 (ip), vehicle: saline
[15] = dose: 200.0 mg/kg/injection, schedule: Q01DX001 (ip), vehicle: saline
[16] = dose: 400.0 mg/kg/injection, schedule: Q01DX001 (ip), vehicle: saline
[17] = dose: 100.0 mg/kg/injection, schedule: Q01DX009 (ip), vehicle: Klucel (hydroxypropylcellulose) (HPC)
[18] = dose: 200.0 mg/kg/injection, schedule: Q01DX009 (ip), vehicle: Klucel (hydroxypropylcellulose) (HPC)
[19] = dose: 400.0 mg/kg/injection, schedule: Q01DX009 (ip), vehicle: Klucel (hydroxypropylcellulose) (HPC)
[20] = dose: 100.0 mg/kg/injection, schedule: Q04DX003 (ip), vehicle: Klucel (hydroxypropylcellulose) (HPC)
[21] = dose: 200.0 mg/kg/injection, schedule: Q04DX003 (ip), vehicle: Klucel (hydroxypropylcellulose) (HPC)
[22] = dose: 400.0 mg/kg/injection, schedule: Q04DX003 (ip), vehicle: Klucel (hydroxypropylcellulose) (HPC)
[23] = dose: 100.0 mg/kg/injection, schedule: Q04DX002 (ip), vehicle: Klucel (hydroxypropylcellulose) (HPC)
[24] = dose: 200.0 mg/kg/injection, schedule: Q04DX002 (ip), vehicle: Klucel (hydroxypropylcellulose) (HPC)
[25] = dose: 400.0 mg/kg/injection, schedule: Q04DX002 (ip), vehicle: Klucel (hydroxypropylcellulose) (HPC)

Measured: T/C

Cc1c(-c2ccc(Cl)cc2)nc2cc(Cl)ccc2c1C(=O)O
inactive: [1] 107 % of control | [2] 100 % of control | dose: 200.0 mg/kg/injection, schedule: Q01DX005 (ip), vehicle: saline 93 % of control | [3] 103 % of control | dose: 400.0 mg/kg/injection, schedule: Q01DX005 (ip), vehicle: saline 91 % of control

CC(=O)Nc1ccc(N)cc1N
inactive: dose: 50.0 mg/kg/injection, schedule: Q04DX003 (ip), vehicle: saline 98 % of control | [4] 102 % of control | dose: 100.0 mg/kg/injection, schedule: Q04DX003 (ip), vehicle: saline 92 % of control and 89 % of control | [5] 115 % of control | dose: 200.0 mg/kg/injection, schedule: Q04DX003 (ip), vehicle: saline 98 % of control | [6] 100 % of control | dose: 400.0 mg/kg/injection, schedule: Q04DX003 (ip), vehicle: saline 89 % of control

[CH3][Pb]([CH3])([CH3])[O]C(=O)CCl
inactive: dose: 0.39 mg/kg/injection, schedule: Q01DX009 (ip), vehicle: saline with Tween-80 97 % of control | dose: 0.78 mg/kg/injection, schedule: Q01DX009 (ip), vehicle: saline with Tween-80 97 % of control | dose: 1.56 mg/kg/injection, schedule: Q01DX009 (ip), vehicle: saline with Tween-80 95 % of control and 115 % of control

Cc1nc2c(C(N)=O)nc(C)n2nc1C
inactive: [7] 93 % of control | [8] 103 % of control | [9] 105 % of control and 107 % of control | [10] 106 % of control | [11] 121 % of control | [12] 111 % of control | [13] 99 % of control | dose: 600.0 mg/kg/injection, schedule: Q01DX001 (ip), vehicle: saline with Tween-80 110 % of control

CCOC(=O)c1ccc(NCc2nnc3nc(N)nc(N)c3n2)cc1
inactive: dose: 50.0 mg/kg/injection, schedule: Q01DX001 (ip), vehicle: saline with Tween-80 103 % of control | [8] 98 % of control | [10] 97 % of control

Nc1ccc(N=Nc2c(Br)cc(S(N)(=O)=O)cc2Br)c(N)n1
inactive: [14] 102 % of control | [15] 100 % of control | [16] 94 % of control

C1CN(CC2CO2)CCO1 (stereo not given)
inactive: [2] 105 % of control | [3] 117 % of control | dose: 400.0 mg/kg/injection, schedule: Q01DX009 (ip), vehicle: saline 105 % of control

CS(=O)(=O)Nc1cc(Cl)c(NS(C)(=O)=O)c(Cl)c1Cl
inactive: [8] 101 % of control | [10] 96 % of control | [12] 107 % of control

CC(C)(C)C(=O)Nc1ccc(F)cc1
inactive: [17] 110 % of control | [18] 94 % of control | [19] 116 % of control

COC1OCC(O)C(N)C1O (stereo not given)
inactive: [14] 102 % of control and 95 % of control | [15] 102 % of control and 104 % of control and 106 % of control | [16] 87 % of control and 98 % of control and 92 % of control

CS(=O)(=O)c1ccc(F)cc1
inactive: [20] 103 % of control | [21] 103 % of control | [22] 97 % of control

CCC(=O)NC(CC(C)C)C(=O)NC(CC(C)C)C(=O)NC(C=O)CCCN=C(N)N (stereo not given) (tested in a mixture with another compound)
inactive: dose: 25.0 mg/kg/injection, schedule: Q04DX002 (ip), vehicle: saline 98 % of control | dose: 50.0 mg/kg/injection, schedule: Q04DX002 (ip), vehicle: saline 91 % of control | dose: 100.0 mg/kg/injection, schedule: Q04DX002 (ip), vehicle: saline 91 % of control

O=C(Nc1nccs1)c1ccccc1F
inactive: [23] 87 % of control | [24] 97 % of control | [25] 102 % of control

CSc1ccc(OC(=O)Nc2ccc(Cl)c(Cl)c2)cc1C
inactive: [17] 106 % of control | [20] 88 % of control | [18] 92 % of control | [21] 93 % of control | [19] 92 % of control | [22] 88 % of control

CCOC(=O)C1C(=O)C(CN(CCCl)CCCl)C(=O)C(C(=O)OCC)C1c1cc(OC)c(OC)c(OC)c1 (stereo not given)
inactive: [23] 114 % of control | [24] 102 % of control | [25] 111 % of control

O=[N+]([O-])c1ccc2scnc2c1
inactive: dose: 100.0 mg/kg/injection, schedule: Q01DX001 (ip), vehicle: acetone 98 % of control | dose: 100.0 mg/kg/injection, schedule: Q04DX003 (ip), vehicle: acetone 107 % of control | dose: 200.0 mg/kg/injection, schedule: Q01DX001 (ip), vehicle: acetone 92 % of control | dose: 200.0 mg/kg/injection, schedule: Q04DX003 (ip), vehicle: acetone 89 % of control | dose: 400.0 mg/kg/injection, schedule: Q01DX001 (ip), vehicle: acetone 95 % of control | dose: 400.0 mg/kg/injection, schedule: Q04DX003 (ip), vehicle: acetone 96 % of control

CCCC(CCC)NC(=O)c1ccccc1
inactive: dose: 25.0 mg/kg/injection, schedule: Q04DX002 (ip), vehicle: saline with Tween-80 104 % of control | [7] 95 % of control | [9] 95 % of control

COCc1nc2ccccc2[nH]1
inactive: [4] 106 % of control | [5] 97 % of control | [6] 93 % of control

O=C1C=C(c2ccccc2)C(O)(c2ccccc2)O1 (stereo not given)
inactive: [8] 106 % of control | [10] 103 % of control | [12] 101 % of control

O=S(=O)(O)c1ccc(-c2ccc([As](=O)(O)O)cc2)cc1
inactive: [9] 95 % of control | [11] 103 % of control | [13] 87 % of control

CN(CCNC(=O)Nc1ccccc1)c1ccccc1
inactive: [17] 101 % of control | [18] 97 % of control | [19] 105 % of control

CN(C)c1ccc(/C=C2\CC(C)(C)c3ccccc3C2=O)cc1
inactive: dose: 100.0 mg/kg/injection, schedule: Q04DX003 (ip), vehicle: saline sonified 103 % of control | dose: 200.0 mg/kg/injection, schedule: Q04DX003 (ip), vehicle: saline sonified 97 % of control | dose: 400.0 mg/kg/injection, schedule: Q04DX003 (ip), vehicle: saline sonified 103 % of control

CCC(O)(c1ccccc1)c1ccccc1
inactive: [4] 103 % of control | [5] 99 % of control | [6] 98 % of control

OCC1OC(n2cncn2)C(O)C1O (stereo not given)
inactive: [1] 102 % of control and 111 % of control

Cc1cnc2c(N)nc(N)nc2n1
inactive: [23] 110 % of control | [24] 98 % of control | [25] 94 % of control
